Reference: patent US4350676A, “Ophthalmic use of carboxyfluorescein” (priority 1981, dated 1982)
Read-outs that look alike come from different tables or passages of the source.

Experiments:
human plasma proteins = test: Dialyzable (unbound) fraction of dye in human plasma; format: in vitro ADME; conditions: for Dialyzable fraction (mean ± S.E.M.): human, plasma
Experimental: (§1) Measurement of unbound dye in plasma: Plasma was separated by centrifugation from the heparinized blood obtained from rats injected with sodium fluorescein or carboxyfluorescein in the intraocular dye distribution study. The plasma was dialyzed for 24 hours at 37° C. against 0.1 M phosphate buffer at pH 7.4 using cellulose dialysis tubing with a 3500 molecular weight cut-off. Dye concentration was measured in the dialysate spectrofluorophotometrically and from this value calculated the unbound plasma dye concentration.
(§2) To study the fraction of unbound dye in human plasma, there was added small aliquots of carboxyfluorescein and sodium fluorescein solutions to plasma separated from heparinized human blood so that the final dye concentration in the plasma was between 10^-3 M and 10^-6 M. The plasma/dye mixture was incubated for 2 hours at 37° C. Then using the dialysis and measuring procedures described above, the ratio of unbound dye to total dye in the plasma mixture was calculated.

[1] = Measurement of unbound dye in plasma of injected rats (dialysis); format: in vivo, male Wistar rats; conditions: rat; for Plasma unbound dye concentration: blood 2-4 min after injection
Experimental: (§3) Intra-ocular dye distribution: Young male Wistar rats (180-250 g) under pentobarital anesthesia (50 mg/kg i.p.) were injected intravenously with carboxyfluorescein or fluorescein solutions (pH 7.4) at doses of 12.5, 62.5 and 125 mg/kg. One minute after dye injection, the eyes were removed and immediately frozen in isopentane cooled to -110° C. by a liquid nitrogen bath. Between 2 and 4 minutes after injection a blood sample from the abdominal aorta was drawn into a heparinized syringe for determination of the concentration of unbound dye in plasma. The frozen eyes were dried under vacuum at -35° C. and embedded in paraffin. After embedding the eyes were stored under vacuum at -20° C. to minimize the development of autofluorescence. Additional eyes from normal rats not injected with dye were processed and stored identically for measurement of tissue autofluorescence. Immediately prior to examination with the fluorescence microscope, sections were cut at a thickness of 12 microns, placed on glass slides, and mounted with xylene.
as §1

rabbit eyes = system: rabbit eyes
Experimental: Carboxyfluorescein was prepared as a 1% solution in water, buffered to pH 7.4. Carboxyfluorescein was made into strip form, using strips of #1 filter paper, impregnated with carboxyfluorescein and allowed to dry. The carboxyfluorescein was applied to rabbit eyes both with the paper impregnated strip and also as a 1% topical drop.

[2] = system: blood-ocular barriers (choroid and retina); format: in vivo, male Wistar rats; conditions: rat, iv
Text: To determine whether a less membrane permeable dye than fluorescein has value as a probe of the structural and functional integrity of the blood-ocular barriers we have undertaken studies of carboxyfluorescein, a compound with the same fluorescence characteristics as fluorescein, but with lower lipid solubility at physiological pH (7). In particular, the lipid solubility of carboxyfluorescein was compared with fluorescein by measuring dye partitioning between octanol and aqueous buffer at different pH to determine solubility behavior relevant to the permeability of cell membranes in vivo. Studies were then made of the ocular distribution carboxyfluorescein in rats after intravenous injection using quantitative fluorescence microscopy; and compared to the results for fluorescein. The plasma binding of carboxyfluorescein was also studied and compared to fluorescein.
as §3
Fluorescence intensity in small areas of the tissue sections was measured with a 450 u fiber optic probe placed in the object plane of an ocular and connected to a photomultiplier tube. An amplified signal from the photomultiplier was recorded with a digital voltmeter. The illumination system consisted of a 50 W high pressure mercury light source and an epifluorescence condensor equipped with a 455-490 nm exciter filter, a 510 nm dichroic beam splitter, and a 520 nm barrier filter. All measurements were performed using a 63X oil objective (N.A. 1.4). With this magnification, an aperture in the object plane restricted the area of illumination to a circle, 24 microns in diameter. The fiber optic probe covered a specimen field, 6 microns in diameter, centered in the larger illuminated field.
Fluorescence intensity of four tissue layers was recorded in the posterior segment: the inner plexiform, outer nuclear, and photoreceptor outer segment layers of the retina, and the choriocapillaris. Each of these layers is of sufficient width so that the illuminated area encompassed a homogeneous field. Foci of intense fluorescence, such as dye filled retinal capillaries, within the illumination field but outside the detection area of the fiber optic probe, can increase the recorded signal by light scatter into the detection area. Fields containing such bright foci were avoided. Examination of the section, location of the area for measurement, and focusing of the image was accomplished under dim green illumination from a tungsten lamp. The illumination was then switched to the fluorescence system, and the maximum value of fluorescence intensity was recorded as voltage. Measurements were made at 12 sites in each layer to obtain the average fluorescence intensities for an individual eye. These values were then corrected for tissue autofluorescence by subtracting the average fluorescence intensity of each layer in eyes from animals not injected with dye. […]

physchem = conditions: for Partition ratio octanol/buffer / logD at 10 µM / logD at 1000 µM: octanol/0.1 m phosphate buffer
Experimental: Octanol/buffer partition ratios: The ratio of concentrations of a given solute in equilibrium distribution between two immiscible solvents is termed the partition coefficient. This expression properly refers only to the distribution of a single molecular species between the two phases. […] Total dye concentration in the two solvent phases was measured without correction for ionization or self-association and the recommended term, "partition ratio", is used to refer to these uncorrected distributions.
Carboxyfluorescein (Eastman Kodak Co., Rochester) or sodium fluorescein (Sigma Chemical Co., St. Louis) was dissolved at concentrations of 10^-3 M or 10^-5 M in octanol-saturated 0.1 M phosphate buffer at different pH values between 6.40 and 8.03. The aqueous dye solutions were equilibrated with equal volumes of buffer-saturated octanol by 100 inversions during 5 minutes, and the phases were separated by centrifugation. Dye concentrations were measured spectrofluorophotometrically at excitation and emmision wavelengths of 487 and 512 nm, respectively, with an Aminco-Bowman Ratio Spectrofluorophotometer.
Two methods were used to calculate partition ratios. In the first, the dye concentration in the aqueous phase was measured before (Cb) and after (Ca) partitioning, and the ratio was obtained from the equation:
P.R.=Coct/Caq=(Cb -Ca)/Ca,
where Coct and Caq are the dye concentration in the octanol and aqueous phases respectively after equilibration. In the second method, concentration in the octanol phase was determined by extracting the dye from octanol with an equal volume 0.1 N NaOH. […] Therefore, dye concentration in the first base extract was accepted as the concentration in the octanol phase and calculated the partition ratio from the equation: […]

cornea = conditions: topical; cited from earlier work
[3] = Dialyzable (unbound) fraction of dye in human plasma; format: in vitro ADME; conditions: human plasma, 37° C., read-out: Dialyzable fraction (mean ± S.E.M.)
Experimental: as §1, §2

[4] = cited from earlier work
[5] = system: active transport system in the anterior uvea; conditions: outward, from eye to blood; cited from earlier work
[6] = cited from earlier work; remark: listed apart in the source

Compound: carboxyfluorescein
- Binding to human plasma proteins compared with fluorescein (human plasma proteins): consistently less bound to human plasma proteins than fluorescein
- Dialyzable fraction (mean ± S.E.M.) (human plasma proteins; 1 µM): .46 ± .01
- Dialyzable fraction (mean ± S.E.M.) (human plasma proteins; 10 µM): .51 ± .03
- Dialyzable fraction (mean ± S.E.M.) (human plasma proteins; 100 µM): .50 ± .01
- Dialyzable fraction (mean ± S.E.M.) (human plasma proteins; 1000 µM): .61 ± .02
- Plasma unbound dye concentration compared with fluorescein ([1]; in vivo, iv): significantly higher than in animals injected with fluorescein
- Persistence of stain (rabbit eyes; corneal abrasion, observation 30 to 45 minutes): persisted but lessened in intensity
- Staining of corneal epithelial defect (rabbit eyes; experimental corneal abrasion): densely stained the corneal epithelial defect
- Hyperemia or corneal changes (rabbit eyes; in vivo): no apparent hyperemia or corneal changes
- Reaction / subjective discomfort (rabbit eyes; in vivo): did not react in a negative fashion
- Visibility in tear film (rabbit eyes; topical, blue light): seen in the tear film
- Fluorescence of iris stroma ([2]; in vivo): the intensity of fluorescence is less than that seen with fluorescein
- Tissue relative fluorescence intensity, IPL (mean ± S.E.M.) ([2]; in vivo, 62.5 mg/kg): .001
- Tissue relative fluorescence intensity, ONL (mean ± S.E.M.) ([2]; in vivo, 62.5 mg/kg): .002 ± .001
- Tissue relative fluorescence intensity, choroid (mean ± S.E.M.) ([2]; in vivo, 62.5 mg/kg): 8.0 ± .4
- Tissue relative fluorescence intensity, outer segments (mean ± S.E.M.) ([2]; in vivo, 62.5 mg/kg): .008 ± .001
- Tissue relative fluorescence intensity, IPL (mean ± S.E.M.) ([2]; in vivo, 125 mg/kg): .002
- Tissue relative fluorescence intensity, ONL (mean ± S.E.M.) ([2]; in vivo, 125 mg/kg): .003 ± .001
- Tissue relative fluorescence intensity, choroid (mean ± S.E.M.) ([2]; in vivo, 125 mg/kg): 7.8 ± .8
- Tissue relative fluorescence intensity, outer segments (mean ± S.E.M.) ([2]; in vivo, 125 mg/kg): .006 ± .003
- Permeability of blood-ocular barriers to intravascular dye ([2]; not told): markedly less permeable to intravascular carboxyfluorescein than to fluorescein
- Partition ratio octanol/buffer (physchem; 10 µM, pH 6.42): .037
- Partition ratio octanol/buffer (physchem; 10 µM, pH 6.87): .0030
- Partition ratio octanol/buffer (physchem; 10 µM, pH 7.38): .0007
- Partition ratio octanol/buffer (physchem; 1000 µM, pH 6.42): .033
- Partition ratio octanol/buffer (physchem; 1000 µM, pH 6.87): .0028
- Partition ratio octanol/buffer (physchem; 1000 µM, pH 7.38): .0008
- Partition ratio octanol/buffer (physchem; 1000 µM, pH 8.03): .00006
- Partition ratio (physchem; octanol/phosphate buffer, pH 6.4): below 0.1

Compound: O=C1OC2(c3ccc(O)cc3Oc3cc(O)ccc32)c2ccccc21 [fluorescein]
- Corneal penetration and artificial aqueous flare (cornea): its ready penetration through the cornea into the aqueous humor creates an artificial aqueous flare
- fraction unbound at 1000 µM ([3]; 10^-3 M): 0.3 ± 0.02
- fraction unbound at 100 µM ([3]; 10^-4 M): 0.33 ± 0.03
- fraction unbound at 10 µM ([3]; 10^-5 M): 0.33 ± 0.01
- fraction unbound at 1 µM ([3]; 10^-6 M): 0.32 ± 0.02
- pKa, divalent/monovalent anion ([4]; dianion/monoanion): 6.7
- pKa, monoanion/neutral molecule ([4]; second listed pKa): 4.4
- pKa, neutral molecule/cation ([4]; third listed pKa): 2.2
- Substrate for active transport [5]: serves as a substrate for an active transport system in the anterior uvea
- Plasma unbound dye concentration ([1]; i.v. 12.5 mg/kg): .04 ± .03 mg/mL
- Plasma unbound dye concentration ([1]; i.v. 62.5 mg/kg): .18 ± .01 mg/mL
- Plasma unbound dye concentration ([1]; i.v. 125 mg/kg): .29 ± .01 mg/mL
- Partition coefficient octanol/artificial sea water [6]: 0.6
- Fluorescence of iris epithelium ([2]; in vivo): brightly stains the cells of the ciliary and iris epithelium
- Outer segment layer values relative to deeper retinal layers ([2]; in vivo): twice as high
- Tissue relative fluorescence intensity, IPL (mean ± S.E.M.) ([2]; in vivo, 12.5 mg/kg): .021
- Tissue relative fluorescence intensity, ONL (mean ± S.E.M.) ([2]; in vivo, 12.5 mg/kg): .011 ± .001
- Tissue relative fluorescence intensity, choroid (mean ± S.E.M.) ([2]; in vivo, 12.5 mg/kg): .57 ± .03
- Tissue relative fluorescence intensity, outer segments (mean ± S.E.M.) ([2]; in vivo, 12.5 mg/kg): .032 ± .003
- Tissue relative fluorescence intensity, IPL (mean ± S.E.M.) ([2]; in vivo, 62.5 mg/kg): .086
- Tissue relative fluorescence intensity, ONL (mean ± S.E.M.) ([2]; in vivo, 62.5 mg/kg): .076 ± .004
- Tissue relative fluorescence intensity, choroid (mean ± S.E.M.) ([2]; in vivo, 62.5 mg/kg): 2.7 ± .2
- Tissue relative fluorescence intensity, outer segments (mean ± S.E.M.) ([2]; in vivo, 62.5 mg/kg): .153 ± .008
- Tissue relative fluorescence intensity, IPL (mean ± S.E.M.) ([2]; in vivo, 125 mg/kg): .150
- Tissue relative fluorescence intensity, ONL (mean ± S.E.M.) ([2]; in vivo, 125 mg/kg): .196 ± .011
- Tissue relative fluorescence intensity, choroid (mean ± S.E.M.) ([2]; in vivo, 125 mg/kg): 5.7 ± .5
- Tissue relative fluorescence intensity, outer segments (mean ± S.E.M.) ([2]; in vivo, 125 mg/kg): .452 ± .021
- Outer segment layer values relative to choroid ([2]; in vivo, 1 min): 6-8%
- logD at 10 µM (physchem; pH 6.42): 1.58
- logD at 1000 µM (physchem; pH 6.42): 1.54
- logD at 10 µM (physchem; pH 6.87): 0.69
- logD at 1000 µM (physchem; pH 6.87): 0.708
- logD at 10 µM (physchem; pH 7.38): -0.194
- logD at 1000 µM (physchem; pH 7.38): -0.292
- logD at 10 µM (physchem; pH 8.03): -1.52
- logD at 1000 µM (physchem; pH 8.03): -1.42
- pH at which partition ratio reaches 1.0 (physchem; octanol/buffer): 7.25
